Reference: ChEMBL document CHEMBL3616368, “Induction of apoptosis by genipin inhibits cell proliferation in AGS human gastric cancer cells via Egr1/p21 signaling pathway” (Bioorg Med Chem Lett, 2015)
Calls of active or inactive are those of the source. No cut-off for these calls is given here.

Legend:
AGS [1] = experiment: Cytotoxicity against human AGS cells assessed as reduction in cell viability after 6 hrs by MTT assay; assay type: functional, cell-based
HEK293 [2] = experiment: Cytotoxicity against HEK293 cells assessed as reduction in cell viability at 12.5 to 100 uM after 6 hrs by MTT assay; assay type: cell-based; conditions: human, hek293, 6 h
[3] = target: Early growth response protein 1 (Homo sapiens) (UniProt P18146); experiment: Activation of Egr1 in human AGS cells assessed as increase in cleaved caspase-3 level at 100 uM by Western blot analysis in presence of caspase-3 inhibitor Ac-DEVD-CHO; assay type: cell-based
Chain of Early growth response protein 1 (Homo sapiens) (P18146 whole entry, looked up): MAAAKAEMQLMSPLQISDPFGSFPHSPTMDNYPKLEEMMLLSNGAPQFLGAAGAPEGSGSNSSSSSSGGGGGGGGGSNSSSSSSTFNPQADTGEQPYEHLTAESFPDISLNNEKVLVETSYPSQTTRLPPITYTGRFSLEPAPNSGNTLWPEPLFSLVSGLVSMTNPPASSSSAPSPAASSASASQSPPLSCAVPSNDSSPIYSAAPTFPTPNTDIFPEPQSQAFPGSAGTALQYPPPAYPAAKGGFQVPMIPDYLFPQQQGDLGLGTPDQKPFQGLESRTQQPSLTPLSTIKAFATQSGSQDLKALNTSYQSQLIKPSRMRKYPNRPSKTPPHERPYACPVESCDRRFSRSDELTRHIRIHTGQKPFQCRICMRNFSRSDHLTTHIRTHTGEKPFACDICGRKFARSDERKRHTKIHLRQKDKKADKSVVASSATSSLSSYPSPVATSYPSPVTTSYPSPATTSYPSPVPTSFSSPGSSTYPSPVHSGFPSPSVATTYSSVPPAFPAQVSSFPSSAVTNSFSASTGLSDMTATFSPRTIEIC

[4] = target: Early growth response protein 1 (Homo sapiens) (UniProt P18146); experiment: Activation of Egr1 in human AGS cells assessed as increase in cleaved caspase-3 level at 100 uM by Western blot analysis; assay type: cell-based
AGS [5] = experiment: Cytotoxicity against human AGS cells assessed as cell viability at 100 uM after 6 hrs by MTT assay in presence of caspase-3 inhibitor Ac-DEVD-CHO; assay type: functional, cell-based
AGS [6] = experiment: Cytotoxicity against human AGS cells assessed as cell viability at 100 uM after 6 hrs by MTT assay; assay type: functional, cell-based
[7] = target: Early growth response protein 1 (Homo sapiens) (UniProt P18146); experiment: Activation of Egr1 in human AGS cells assessed as increase in cleaved PARP level at 100 uM by Western blot analysis; assay type: cell-based
[8] = target: Early growth response protein 1 (Homo sapiens) (UniProt P18146); experiment: Activation of Egr1 in human AGS cells assessed as increase in cleaved caspase-9 level at 100 uM by Western blot analysis; assay type: cell-based
[9] = target: Early growth response protein 1 (Homo sapiens) (UniProt P18146); experiment: Activation of Egr1 in human AGS cells assessed as increase in cleaved caspase-7 level at 100 uM by Western blot analysis; assay type: cell-based
HEK293 [10] = experiment: Induction of apoptosis in HEK293 cells assessed as increase in cleaved PARP level at 100 uM by Western blot analysis; assay type: cell-based; conditions: human, hek293, 100 µM
HEK293 [11] = experiment: Induction of apoptosis in HEK293 cells assessed as increase in cleaved caspase-9 level at 100 uM by Western blot analysis; assay type: cell-based; conditions: human, hek293, 100 µM
HEK293 [12] = experiment: Induction of apoptosis in HEK293 cells assessed as increase in cleaved caspase-7 level at 100 uM by Western blot analysis; assay type: cell-based; conditions: human, hek293, 100 µM
HEK293 [13] = experiment: Induction of apoptosis in HEK293 cells assessed as increase in cleaved caspase-3 level at 100 uM by Western blot analysis; assay type: cell-based; conditions: human, hek293, 100 µM
[14] = target: Early growth response protein 1 (Homo sapiens) (UniProt P18146); experiment: Activation of Egr1 in human AGS cells assessed as increase in intracellular accumulation of reactive oxygen species at 100 uM by H2DCFDA probe-based flow cytometric analysis relative to control; assay type: cell-based
[15] = target: Early growth response protein 1 (Homo sapiens) (UniProt P18146); experiment: Activation of Egr1 in human AGS cells assessed as increase in loss of mitochondrial membrane potential after 6 hrs by Rh-123 staining-based flow cytometric analysis relative to control; assay type: cell-based
AGS [16] = experiment: Cell cycle arrest in human AGS cells assessed as accumulation at G0/G1 phase at 12.5 uM after 6 hrs by propidium iodide staining-based flow cytometric analysis (reference value: 52.82 +/- 2.87%); assay type: functional
AGS [17] = experiment: Cell cycle arrest in human AGS cells assessed as accumulation at G0/G1 phase at 25 uM after 6 hrs by propidium iodide staining-based flow cytometric analysis (reference value: 52.82 +/- 2.87%); assay type: functional
AGS [18] = experiment: Cell cycle arrest in human AGS cells assessed as accumulation at G0/G1 phase at 50 uM after 6 hrs by propidium iodide staining-based flow cytometric analysis (reference value: 52.82 +/- 2.87%); assay type: functional
AGS [19] = experiment: Cell cycle arrest in human AGS cells assessed as accumulation at G0/G1 phase at 100 uM after 6 hrs by propidium iodide staining-based flow cytometric analysis (reference value: 52.82 +/- 2.87%); assay type: functional
AGS [20] = experiment: Cell cycle arrest in human AGS cells assessed as accumulation at S phase at 12.5 uM after 6 hrs by propidium iodide staining-based flow cytometric analysis (reference value: 21.40 +/- 2.87%); assay type: functional
AGS [21] = experiment: Cell cycle arrest in human AGS cells assessed as accumulation at S phase at 25 uM after 6 hrs by propidium iodide staining-based flow cytometric analysis (reference value: 21.40 +/- 2.87%); assay type: functional
AGS [22] = experiment: Cell cycle arrest in human AGS cells assessed as accumulation at S phase at 50 uM after 6 hrs by propidium iodide staining-based flow cytometric analysis (reference value: 21.40 +/- 2.87%); assay type: functional
AGS [23] = experiment: Cell cycle arrest in human AGS cells assessed as accumulation at S phase at 100 uM after 6 hrs by propidium iodide staining-based flow cytometric analysis (reference value: 21.40 +/- 2.87%); assay type: functional
AGS [24] = experiment: Cell cycle arrest in human AGS cells assessed as accumulation at G2/M phase at 12.5 uM after 6 hrs by propidium iodide staining-based flow cytometric analysis (reference value: 23.05 +/- 3.15%); assay type: functional
AGS [25] = experiment: Cell cycle arrest in human AGS cells assessed as accumulation at G2/M phase at 25 uM after 6 hrs by propidium iodide staining-based flow cytometric analysis (reference value: 23.05 +/- 3.15%); assay type: functional
AGS [26] = experiment: Cell cycle arrest in human AGS cells assessed as accumulation at G2/M phase at 50 uM after 6 hrs by propidium iodide staining-based flow cytometric analysis (reference value: 23.05 +/- 3.15%); assay type: functional
AGS [27] = experiment: Cell cycle arrest in human AGS cells assessed as accumulation at G2/M phase at 100 uM after 6 hrs by propidium iodide staining-based flow cytometric analysis (reference value: 23.05 +/- 3.15%); assay type: functional
AGS [28] = experiment: Cell cycle arrest in human AGS cells assessed as accumulation at G2/M phase after 6 hrs by propidium iodide staining-based flow cytometric analysis; assay type: functional
[29] = target: Early growth response protein 1 (Homo sapiens) (UniProt P18146); experiment: Activation of Egr1 in human AGS cells assessed as downregulation of cyclin A expression at 12.5 to 100 uM by Western blot analysis; assay type: cell-based
[30] = target: Early growth response protein 1 (Homo sapiens) (UniProt P18146); experiment: Activation of Egr1 in human AGS cells assessed as downregulation of cyclin E expression at 12.5 to 100 uM by Western blot analysis; assay type: cell-based
[31] = target: Early growth response protein 1 (Homo sapiens) (UniProt P18146); experiment: Activation of Egr1 in human AGS cells assessed as upregulation of protein expression by Western blot analysis; assay type: cell-based
[32] = target: Early growth response protein 1 (Homo sapiens) (UniProt P18146); experiment: Activation of Egr1 in human AGS cells assessed as upregulation of p21 expression by Western blot analysis; assay type: cell-based
AGS [33] = experiment: Upregulation of Egr1 mRNA expression in human AGS cells by RT-qPCR analysis; assay type: functional, cell-based
[34] = target: Early growth response protein 1 (Homo sapiens) (UniProt P18146); experiment: Activation of Egr1 in human AGS cells assessed as upregulation of p21 mRNA expression by RT-qPCR analysis; assay type: cell-based
[35] = target: Early growth response protein 1 (Homo sapiens) (UniProt P18146); experiment: Activation of Egr1 in human AGS cells assessed as upregulation of protein expression after 6 hrs by DAPI staining-based fluorescence microscopic analysis; assay type: cell-based
[36] = target: Early growth response protein 1 (Homo sapiens) (UniProt P18146); experiment: Activation of Egr1 in human AGS cells assessed as induction of p21 promoter activity by dual luciferase reporter gene assay; assay type: cell-based
[37] = target: Early growth response protein 1 (Homo sapiens) (UniProt P18146); experiment: Activation of Egr1 in human AGS cells assessed as induction of p21 promoter activity by ChIP assay; assay type: cell-based
[38] = target: Early growth response protein 1 (Homo sapiens) (UniProt P18146); experiment: Activation of Egr1 in human AGS cells assessed as increase in interaction with p21 promoter by dual luciferase reporter gene assay; assay type: cell-based
[39] = target: Early growth response protein 1 (Homo sapiens) (UniProt P18146); experiment: Activation of Egr1 in human AGS cells assessed as increase in interaction with p21 promoter by ChIP assay; assay type: cell-based
AGS [40] = experiment: Upregulation of Egr1 mRNA expression in human AGS cells at 50 to 100 uM by RT-qPCR analysis in presence of si-Egr1 relative to control; assay type: functional, cell-based
[41] = target: Early growth response protein 1 (Homo sapiens) (UniProt P18146); experiment: Activation of Egr1 in human AGS cells assessed as upregulation of p21 mRNA expression at 50 to 100 uM by RT-qPCR analysis in presence of si-Egr1 relative to control; assay type: cell-based
[42] = target: Early growth response protein 1 (Homo sapiens) (UniProt P18146); experiment: Activation of Egr1 in human AGS cells assessed as upregulation of protein expression at 50 to 100 uM by Western blot analysis in presence of si-Egr1; assay type: cell-based
[43] = target: Early growth response protein 1 (Homo sapiens) (UniProt P18146); experiment: Activation of Egr1 in human AGS cells assessed as upregulation of p21 expression at 50 to 100 uM by Western blot analysis in presence of si-Egr1; assay type: cell-based
[44] = target: Early growth response protein 1 (Homo sapiens) (UniProt P18146); experiment: Activation of Egr1 in human AGS cells assessed as induction of p21 promoter activity at 12.5 to 100 uM by dual luciferase reporter gene assay in presence of si-Egr1; assay type: cell-based
[45] = target: Early growth response protein 1 (Homo sapiens) (UniProt P18146); experiment: Activation of Egr1 in human AGS cells assessed as increase in cleaved caspase-3 level at 50 to 100 uM by Western blot analysis in presence of si-Egr1; assay type: cell-based
AGS [46] = experiment: Cytotoxicity against human AGS cells assessed as cell viability at 100 uM after 6 hrs by MTT assay in presence of si-Egr1; assay type: functional, cell-based
[47] = target: Early growth response protein 1 (Homo sapiens) (UniProt P18146); experiment: Activation of Egr1 in human AGS cells transfected with p21-pcDNA3 assessed as increase in cleaved PARP level at 50 to 100 uM by Western blot analysis; assay type: cell-based
AGS [48] = experiment: Cytotoxicity against human AGS cells transfected with p21-pcDNA3 assessed as cell viability at 12.5 to 100 uM after 6 hrs by MTT assay relative to control; assay type: functional, cell-based
[49] = target: Early growth response protein 1 (Homo sapiens) (UniProt P18146); experiment: Activation of Egr1 in human AGS cells transfected with p21-pcDNA3 assessed as increase in intracellular accumulation of reactive oxygen species at 100 uM by H2DCFDA probe-based flow cytometric analysis relative to control; assay type: cell-based

- Activity [3]: inactive
- Activity [4]: Active
- Activity [7]: Active
- Activity [8]: Active
- Activity [9]: Active
- Activity [14]: Active
- Activity [15]: Dose-dependent effect
- Activity [29]: Active
- Activity [30]: Active
- Activity [31]: Dose-dependent effect
- Activity [32]: Dose-dependent effect
- Activity [34]: Dose-dependent effect
- Activity [35]: Dose-dependent effect
- Activity [36]: Dose-dependent effect
- Activity [37]: Dose-dependent effect
- Activity [38]: Dose-dependent effect
- Activity [39]: Dose-dependent effect
- Activity [41]: inactive
- Activity [42]: inactive
- Activity [43]: inactive
- Activity [44]: inactive
- Activity [45]: inactive
- Activity [47]: Active
- Activity [49]: Active
SMILES: COC(=O)C1=CO[C@@H](O)[C@@H]2C(CO)=CC[C@H]12 [GENIPIN]
- Activity (AGS [1]): Dose-dependent effect
- Activity (HEK293 [2]): Non-toxic
- Activity (AGS [5]): inactive
- Activity (AGS [6]): Active
- Activity (HEK293 [10]): Non-toxic
- Activity (HEK293 [11]): Non-toxic
- Activity (HEK293 [12]): Non-toxic
- Activity (HEK293 [13]): Non-toxic
- Activity (AGS [16]): 48.45%
- Activity (AGS [17]): 42.33%
- Activity (AGS [18]): 35.97%
- Activity (AGS [19]): 36.88%
- Activity (AGS [20]): 22.67%
- Activity (AGS [21]): 24.66%
- Activity (AGS [22]): 28.54%
- Activity (AGS [23]): 27.48%
- Activity (AGS [24]): 26.34%
- Activity (AGS [25]): 30.53%
- Activity (AGS [26]): 33.53%
- Activity (AGS [27]): 33%
- Activity (AGS [28]): Dose-dependent effect
- Activity (AGS [33]): Dose-dependent effect
- Activity (AGS [40]): inactive
- Activity (AGS [46]): inactive
- Activity (AGS [48]): Active
